The term Kb denotes the equilibrium dissociation constant of an antagonist, usually derived from a functional assay. Low readings indicate a more potent antagonist, high ones a less potent antagonist.

T1 sequence (P47747 whole entry): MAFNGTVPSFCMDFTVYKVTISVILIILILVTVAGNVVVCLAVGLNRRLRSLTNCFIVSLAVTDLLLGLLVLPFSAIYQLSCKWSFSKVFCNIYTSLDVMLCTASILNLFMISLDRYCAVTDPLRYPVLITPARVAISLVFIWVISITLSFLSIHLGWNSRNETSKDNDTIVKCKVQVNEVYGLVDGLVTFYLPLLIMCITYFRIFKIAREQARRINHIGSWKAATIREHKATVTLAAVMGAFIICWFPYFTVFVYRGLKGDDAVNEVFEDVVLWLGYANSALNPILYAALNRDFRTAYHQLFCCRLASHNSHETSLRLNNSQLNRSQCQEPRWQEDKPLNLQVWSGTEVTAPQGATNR

The experiment addresses T1, histamine-H2 receptors (isolated atrium) (Cavia porcellus, UniProt P47747).
T1 construct: in vitro on the isolated atrium of guinea pigs; from tissue; host or cells: isolated guinea pig atrium
Briefly: H2-antagonistic activity, pA2-values in vitro on the isolated atrium of guinea pigs. In kind it is cell-based. The following applies: isolated guinea pig atrium, H2 antagonism. The source says: An accepted method for determining H2-antagonistic activity is to determine the pA2-values in vitro on the isolated atrium of guinea pigs (cf. Ariens, Molecular Pharmacology, Vol. 1, Academic Press, New York, 1964).
The compound `CN(C)Cc1cc(CSCCC(=N)NS(=O)(=O)c2ccc(N)cc2)cs1` [Example 2, N-(p-aminobenzene-sulfonyl)-3-[(2-N,N-dimethylaminomethylthienyl-4)-methylthio]-propionamidine] gave a Kb of 79.4 nM.
In turn, `N=C(CCSCc1csc(CN2CCCCC2)c1)NS(=O)(=O)c1ccc(N)cc1` [Example 12] had a Kb of 63.1 nM.
The result for `N=C(CCCCOc1cccc(CN2CCCCC2)c1)NS(=O)(=O)c1ccc(N)cc1` [Example 10] reads 112 nM.

These data come from US4596811A, “Heterocyclic compounds, a process for their production and medicaments containing these compounds” (Ludwig Heumann & Co., GmbH, priority 1982, dated 1986).
